Data from patent US20100093865A1, “SULPHUR-LINKED COMPOUNDS FOR TREATING OPHTHALMIC DISEASES AND DISORDERS” (Acucela, Inc., priority 2008, published 2010).

Legend:
[1] = target: T1, isomerase (Mus musculus, UniProt Q91ZQ5); assay: In vivo murine isomerase assay; conditions: oral, mice, 11-cis-retinal (oxime) recovery after photobleaching
T1 construct: from tissue; host or cells: eye of living mice (CD-1; Balb/c also mentioned)
T1 sequence (Q91ZQ5 1-533): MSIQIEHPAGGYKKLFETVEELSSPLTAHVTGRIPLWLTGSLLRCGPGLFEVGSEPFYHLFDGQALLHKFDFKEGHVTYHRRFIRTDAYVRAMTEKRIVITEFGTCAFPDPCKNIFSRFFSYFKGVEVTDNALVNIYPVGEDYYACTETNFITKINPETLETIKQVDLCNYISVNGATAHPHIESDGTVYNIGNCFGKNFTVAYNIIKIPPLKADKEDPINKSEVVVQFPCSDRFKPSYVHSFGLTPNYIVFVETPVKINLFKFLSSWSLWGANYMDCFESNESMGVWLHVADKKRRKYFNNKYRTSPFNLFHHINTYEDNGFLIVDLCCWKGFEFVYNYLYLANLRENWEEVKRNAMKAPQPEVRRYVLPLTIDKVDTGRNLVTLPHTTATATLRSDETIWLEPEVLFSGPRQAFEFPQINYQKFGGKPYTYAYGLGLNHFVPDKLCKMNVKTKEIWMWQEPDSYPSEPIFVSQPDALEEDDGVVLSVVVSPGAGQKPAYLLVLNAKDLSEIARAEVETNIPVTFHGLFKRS
Method: The capability of sulphur-linked compounds to inhibit isomerase is determined by an in vivo murine isomerase assay. Brief exposure of the eye to intense light (“photobleaching” of the visual pigment or simply “bleaching”) is known to photo-isomerize almost all 11-cis-retinal in the retina. The recovery of 11-cis-retinal after bleaching can be used to estimate the activity of isomerase in vivo. Delayed recovery, as represented by lower 11-cis-retinal oxime levels, indicates inhibition of isomerization reaction. […] See also Deigner et al., Science, 244: 968-71 (1989); Gollapalli et al., Biochim Biophys Acta. 1651: 93-101 (2003); Parish, et al., Proc. Natl. Acad. Sci. USA, 14609-13 (1998); Radu, et al., Proc Natl Acad Sci USA 101: 5928-33 (2004).
About six-week old dark-adapted CD-1 (albino) male mice are orally gavaged with compound (0.01-25 mg/kg) dissolved in an appropriate amount of oil (about 100 μl corn oil containing 10% ethanol, at least five animals per group). Mice are gavaged with the sulphur-linked compounds described in the present disclosure. After about 2-24 hours in the dark, the mice are exposed to photobleaching of about 5,000 lux of white light for 10 minutes. The mice are allowed to recover for about 2 hours in the dark. The animals are then sacrificed by carbon dioxide inhalation. Retinoids are extracted from the eye and the regeneration of 11-cis-retinal is assessed at various time intervals.
All steps are performed in darkness with minimal redlight illumination (low light darkroom lights and red filtered flashlights for spot illumination as needed) (see, e.g., Maeda et al., J. Neurochem 85:944-956, 2003; Van Hooser et al., J Biol Chem 277:19173-82, 2002). After the mice are sacrificed, the eyes are immediately removed and placed in liquid nitrogen for storage.
The eyes are placed in about 500 μL of bis-tris propane buffer (10 mM, pH ˜7.3) and about 20 μL of 0.8M hydroxylamine (pH-7.3). The eyes are cut up into small pieces with small iris scissors and then thoroughly homogenized at 30000 rpm with a mechanical homogenizer (Polytron PT 1300 D) in the tube until no visible tissue remains. About […] of methanol and about 500 μL of heptane are added to each tube. The tubes are attached to a vortexer so that the contents are mixed thoroughly for about 15 minutes in room temperature. The organic phase is separated from the aqueous phase by centrifugation for about 10 min at 13K rpm, 4° C. 240 μL of the solution from the top layer (organic phase) is removed and transferred to clean 300 μl glass inserts in HPLC vials using glass pipette and the vials are crimped shut tightly.
The samples are analyzed on an Agilent 1100 HPLC system with normal phase column: SILICA (Beckman Coutlier, dp 5 μm, […]). The running method has a flow rate of 1.5 ml/min; solvent components are 15% solvent 1 (1% isopropanol in ethyl acetate), and 85% solvent 2 (100% hexanes). Loading volume for each sample is about 100 μl; detection wavelength is 360 nm. The area under the curve for 11-cis-retinal oxime is calculated by Agilent Chemstation software and recorded manually. Data processing is performed using Prizm software.
[…] control mice (no compound administered) are sacrificed fully dark-adapted and the eye retinoids analyzed. Light (bleached) control mice (no compound administered) are sacrificed and retinoids isolated and analyzed immediately after light treatment.
A dose response in vivo isomerase inhibition study is performed with the compounds of the present disclosure. Male or female mice (such as Balb/c mice) (at least about 8/group) are dosed orally with about 0.01 to 25 mg/kg of the compounds of HCl salts of the compounds in sterile water as solution, and photobleached about 4 hours after dosing. Recovery and retinoid analysis is performed as described above. Dark control mice are vehicle-only treated, sacrificed fully dark adapted without light treatment, and analyzed. […]

[2] = target: T2, recombinant human RPE65 and LRAT (visual cycle isomerase) (Homo sapiens, UniProt Q16518); assay: Human in vitro isomerase inhibition assay; format: biochemical
T2 construct: expressed in transfected cells; host or cells: HEK293 cell clone (homogenate); CRALBP made in E. coli TOP10
T2 sequence (Q16518 2-533 limits assumed): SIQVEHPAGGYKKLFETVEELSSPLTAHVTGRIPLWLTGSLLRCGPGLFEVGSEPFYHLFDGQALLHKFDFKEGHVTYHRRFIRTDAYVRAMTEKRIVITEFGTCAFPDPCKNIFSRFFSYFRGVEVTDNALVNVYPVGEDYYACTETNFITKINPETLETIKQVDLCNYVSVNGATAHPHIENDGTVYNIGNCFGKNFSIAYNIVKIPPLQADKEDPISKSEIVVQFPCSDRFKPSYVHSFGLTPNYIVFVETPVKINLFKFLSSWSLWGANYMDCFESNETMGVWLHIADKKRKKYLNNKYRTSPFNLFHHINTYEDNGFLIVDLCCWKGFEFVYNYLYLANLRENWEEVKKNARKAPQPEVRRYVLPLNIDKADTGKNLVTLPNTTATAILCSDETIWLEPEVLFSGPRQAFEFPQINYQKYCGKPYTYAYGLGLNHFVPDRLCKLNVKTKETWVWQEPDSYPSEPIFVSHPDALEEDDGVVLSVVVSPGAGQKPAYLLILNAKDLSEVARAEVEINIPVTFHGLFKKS
Method: The capability of sulphur-linked compounds to inhibit the activity of a visual cycle isomerase was determined in vitro either in a human or bovine-based assay system.
Recombinant human apo cellular retinaldehyde-binding protein (CRALBP) was cloned and expressed according to standard methods in the molecular biology art (see Crabb et al., Protein Science 7:746-57 (1998); Crabb et al., J. Biol. Chem. 263:18688-92 (1988)). Briefly, total RNA was prepared from confluent ARPE19 cells (American Type Culture Collection, Manassas, Va.), cDNA was synthesized using an oligo(dT)12-18 primer, and then DNA encoding CRALBP was amplified by two sequential polymerase chain reactions (see Crabb et al., J. Biol. Chem. 263:18688-92 (1988); Intres, et al., J. Biol. Chem. 269:25411-18 (1994); GenBank Accession No. L34219.1). The PCR product was sub-cloned into pTrcHis2-TOPO TA vector according to the manufacturer's protocol (Invitrogen Inc., Carlsbad, Calif.; catalog no. K4400-01), and then the sequence was confirmed according to standard nucleotide sequencing techniques. Recombinant 6×His-tagged human CRALBP was expressed in One Shot TOP 10 chemically competent E. coli cells (Invitrogen), and the recombinant polypeptide was isolated from E. coli cell lysates by nickel affinity chromatography using nickel (Ni) Sepharose XK16-20 columns for HPLC (Amersham Bioscience, Pittsburgh, Pa.; catalog no. 17-5268-02). The purified 6×His-tagged human CRALBP was dialyzed against 10 mM bis-tris-Propane (BTP) and analyzed by SDS-PAGE. The molecular weight of the recombinant human CRALBP was approximately 39 kDal.
The concentration dependent effect of the compounds disclosed herein on the retinol isomerization reaction were evaluated with a recombinant human enzyme system. […] A homogenate of HEK293 cell clone expressing recombinant human RPE65 and LRAT were the source of the visual enzymes, and exogenous all-trans-retinol (about 20 μM) was used as the substrate. Recombinant human CRALBP (about 80 ug/mL) was added to enhance the formation of 11-cis-retinal. The 200 μL Bis-Tris Phosphate buffer (10 mM, pH 7.2) based reaction mixture also contains 0.5% BSA, and 1 mM NaPPi. In this assay, the reaction was carried out at 37° C. in duplicates for one hour and was terminated by addition of 300 μL methanol. The amount of reaction product, 11-cis-retinol, was measured by HPLC analysis following Heptane extraction of the reaction mixture. […] The ability of the compounds disclosed herein to inhibit isomerization reaction is quantified and the respective IC50 value is determined. Table 2 summarizes the IC50 values of all the compounds of the present disclosure. […] The production of 11-cis-retinol was measured at different doses of compound administration.

% Inibition 1.0 mg/kg, 4 h [1] | inhibition of 11-cis-retinol production [2] | % Inibition 0.3 mg/kg, 4 h [1] | Structure (SMILES)
−8.5% | – | – | [2H]C([2H])(Sc1cccc(C(O)CCN)c1)C1CCCCC1 (centres unmarked) [Example 49, 3-amino-1-(3-(cyclohexyldideuteromethylthio)phenyl)propan-1-ol]
−1.6% | – | – | [2H]C([2H])(C1CCCCC1)S(=O)(=O)c1cccc(C(O)CCN)c1 (centres unmarked) [Example 50, 3-amino-1-(3-(cyclohexyldideuteromethylsulfonyl)phenyl)propan-1-ol]
33.4% | dose-dependent inhibition | – | NCC[C@@H](O)c1cccc(SCC2CCCCC2)c1 [Example 17, (R)-3-amino-1-(3-(cyclohexylmethylthio)phenyl)propan-1-ol]
– | dose-dependent inhibition | – | NC/C=C/c1cccc(SCC2CCCCC2)c1 [Example 11, (E)-3-(3-(cyclohexylmethylthio)phenyl)prop-2-en-1-amine]
87.1% | – | – | [2H]C([2H])(N)CC(O)c1cccc(SCC2CCCCC2)c1 (centres unmarked) [Example 45, 3-amino-1-(3-(cyclohexylmethylthio)phenyl)-3,3-dideuteropropan-1-ol]
79.3% | – | – | NCCC(=O)c1cccc(S(=O)(=O)CC2CCCCC2)c1 [Example 10, 3-amino-1-(3-(cyclohexylmethylsulfonyl)phenyl)propan-1-one]
14.8% | – | – | NCCC(O)c1cccc(SCC2(O)CCCCC2)c1 (centres unmarked) [Example 27, 1-((3-(3-amino-1-hydroxypropyl)phenylthio)methyl)cyclohexanol]
20.3% | – | 3.7% | NCCC(O)c1cccc(S(=O)(=O)CC2CCCCC2)c1 (centres unmarked) [Example 9, 3-amino-1-(3-(cyclohexylmethylsulfonyl)phenyl)propan-1-ol]
−14.2% | – | – | NCCC(O)c1cccc(SCC2CCCCC2)c1 (centres unmarked) [Example 8, 3-amino-1-(3-(cyclohexylmethylthio)phenyl)propan-1-ol]
68.6% | – | – | CCCCSc1cccc([C@H](O)CCN)c1 [Example 18, (R)-3-amino-1-(3-(butylthio)phenyl)propan-1-ol]
– | dose-dependent inhibition | – | NC/C=C/c1cccc(S(=O)(=O)CC2CCCCC2)c1 [Example 14, (E)-3-(3-(cyclohexylmethylsulfonyl)phenyl)prop-2-en-1-amine]
−12.1% | dose-dependent inhibition | 1.1% | NCCCc1cccc(S(=O)(=O)CC2CCCCC2)c1 [Example 5, 3-(3-(cyclohexylmethylsulfonyl)phenyl)propan-1-amine]
−4.9% | – | – | [2H]C1([2H])C([2H])([2H])C([2H])([2H])C([2H])(CSc2cccc(C(O)CCN)c2)C([2H])([2H])C1([2H])[2H] (centres unmarked) [Example 53, 3-amino-1-(3-((perdeuterocyclohexyl)methylthio)phenyl)propan-1-ol]
